Data reported in US20240293562A1, “METHODS FOR USING NEUROTROPHIN RECEPTOR BINDING CONJUGATE COMPOSITIONS IN THE TREATMENT OF A NEUROLOGICAL CONDITION” (Manzanita Pharmaceuticals, Inc., priority 2020, published 2024).

Test system: Superior cervical ganglia (SCG) neurons
Assay: Bioassay of neuronal survival in primary superior cervical ganglia neurons
Type: cell-based, Sprague Dawley rat
Conditions: primary SCG neurons from E-21 rat pups, microfluidic devices
Source text: The SCG assay was adapted to compartmented cultures and updated to grow primary neurons in microfluidic devices SCG neurons were harvested from E-21 Sprague Dawley rat pups. If labeled NGF has similar bioavailability to the unlabeled NGF, i.e., TrkA binding sites remain intact. FIG. 2 (right) compares left panels of study article with right panels showing treatment with NGF only.

nerve growth factor [NGF]
neuronal survival: appear to show neuronal survival
